{"source": "patent US10428347B2", "about": "“Herbicide-detoxifying enzymes and uses thereof” (priority 2017, dated 2019)", "molecules": {"B1": {"name": "ChD: chlorothalonil dehalogenase from Pseudomonas species strain CTN-3, amino acid SEQ ID NO: 168 (protein, listed as Pseudomonas sp.)", "chain": "MPPGCSGLCSFVGLTMPLKFSGVLCASLLTITLSVAAHATELILDFNKVQMRSQQLAPGVYAHLPADSAELNAKGGVAGTSGGLIVGTRGAMLIETMLNRRLFDQVQALAKKEALGLPLLYAVNTSYHGDHSYGNMYLKAPTRVIQSTKTRDYVDGHLADDKAFMVKNFGAGRGVEQITARTGDILVPPGGRVSVDLGGKTVEIIDFGFAQTGGDLFVWEPQSKVMWTGNAVVASKPALPWLLDGKLVETLATLQKVYDFLPPDATIVPGHGVPMAREGLRWHLDYLAAVQAGVKDALARKLSLEQTVTELKMPEFRGYVLFDWVHPDLNVPAAYKDLAARP"}}, "key": {"[1]": {"assay": "Spray tank cleaning procedure using salicylate monooxygenase to remove dicamba", "settings": "spray application using dicamba"}, "[2]": {"settings": "HPLC; for Dicamba (ppm): samples diluted to expected 35 ppm", "experimental": "A Bacillus subtilis (A64) control reaction, which was supernatant with no SM1 enzyme was performed in parallel. The reactions were incubated at 37° C. with 400 rpm stirring for two hours. Aliquots of the reactions were collected at time 0 (T0), 1 hour, and 2 hours, and frozen at −80° C.\nHPLC column (Kinetex® 5 μm C18 100 Å, LC Column 50×4.6 mm) was equilibrated for 15 minutes with 35% acetonitrile and 65% 10 mM ammonium acetate with 0.1% formic acid in water. A volume of 10 μL of each sample was injected into Waters 2695 Separations Module with a 2996 Photodiode Array Detector. Samples were run isocratically (35% acetonitrile and 65% 10 mM ammonium acetate with 0.1% formic acid in water) for 2 minutes. […] An average of 3 measurements was run for each treatment sample.\nThe HPLC results as reported in FIG. 2 are the average of 3 sample measurements."}, "soybean plants [3]": {"system": "soybean plants", "assay": "Trifoliate damage scoring of soybean treated with SM1-dicamba reaction products", "type": "in vivo", "design": "key: 0: No visible damage; 1: youngest trifoliate has moderate yellowing or curling; 2: youngest trifoliate has moderate yellowing or curling; 3: youngest trifoliate has severe yellowing or curling; 4: youngest trifoliate is completely dead or shriveled; 5: plant is completely necrotic (dead)", "settings": "V1 soybean (Morsoy Xtra), 100 μL reaction product diluted 1:24 with 0.01% SILWET L-77 on trifoliate leaves, 6 plants; Time (hours) 2; scale 0-5", "text": "These SM1-dicamba degradation products were applied to soybean seedlings (variety, Morsoy Xtra). […] The plants were scored based on trifoliate damage using the scale as described in Table 27."}, "soybean plants [4]": {"system": "soybean plants", "assay": "V1 soybean bioassay of dicamba reacted with ChD with or without MnSO4", "description": "Soybean plants (variety Morsoy Xtra) were planted in Timberline soil (2 seeds per pot) and grown for 12 days under controlled environmental growth conditions: 300 μmol m^−2 s^−1 (light photons) for a 13/11 light/day cycle and a 21° C. day/15° C. night temperature range until the V1 stage of development.\nThe dilution to achieve 100 ppm or 100 mg/L was made in 25 mM HEPES pH 7 in a 10 mL total volume. […] The ChD enzyme production was centrifuged to remove any cellular debris and then divided into aliquots of 100 μL containing the Bacillus subtillis (A64) filtrate with the ChD expressed enzyme. […] The reactions were incubated at 37° C. with 400 ppm stirring for two hours. Aliquots of the reactions were collected and stored at −80° C."}, "[5]": {"settings": "oxidation of NADH", "text": "Spectra were read from 200-700 nm with a BioTek SYNERGY HTX plate reader (BioTek Instrument Inc.).\nNADH disappears when the molecule is oxidized to NAD^+."}, "soybean seedlings": {"system": "soybean seedlings", "assay": "Spray of enzyme-treated dicamba solution onto soybean seedlings", "type": "in vivo", "settings": "2.5-week-old soybean seedlings sprayed with 208 μM dicamba solution with or without immobilized enzyme, one week", "experimental": "Salicylate monooxygenase (SM, SEQ ID NO: 21) and hydroxyphenylacetate monooxygenase (HPAM, SEQ ID NO: 30) were immobilized on particles. […] Aliquots (1 ml) were taken from incubated samples at 0 minutes, 10 minutes, 30 minutes, 1 hour, 5 hours, 24 hours and 30 hours after the introduction of SM and immediately frozen to stop the detoxification reaction. NADPH consumption was quantified by measuring loss of absorbance at 340 nm using a spectrophotometer. Results for SM are shown in panel A of FIG. 10 and results for HPAM are shown in panel A of FIG. 11. Consumption of NADPH is proportional to the degradation of dicamba.\nImmediately after taking the absorbance measurements, the 1 ml aliquots were mixed with a nonionic organosilicone surfactant copolymer (0.1% SILWET L77) and 200 μL of the mixture was sprayed onto 2.5-week-old soybean seedlings (six plants per treatment group, on average). The use of the surfactant ensured even distribution of the solutions on the plants. Control plants were sprayed with water+surfactant alone or dicamba+surfactant alone. After one week, the degree of herbicide damage or the degree of protection from dicamba-induced injury (in plants treated with SM) was assessed visually."}, "soybean": {"system": "soybean", "assay": "Spray tank dicamba treated with ChD crude cell lysate, applied to field soybean", "type": "in vivo", "settings": "field soybean V2-V3, 2 ml of tank sample (about 200 mg/L dicamba, with or without 5% v/v crude cell lysate for 10 minutes), one week after application (FIG. 15)", "experimental": "Chlorothalonil dehalogenase (ChD, SEQ ID NO: 168) was prepared as a crude cell lysate as described above in Example 5. […] A 5% v/v solution of the crude cell lysate containing the ChD enzyme was added and the tank was run for an additional 10 minutes. […] Each of the samples was frozen immediately after collection from the tank. Samples were transported to the field on ice to ensure that enzyme activity was halted."}, "[6]": {"assay": "Absorbance spectra assay of dicamba degradation by ChD or CAC"}, "sensitive plants": {"system": "sensitive plants", "settings": "in vivo; cited from earlier work"}, "[7]": {"assay": "Sequestration of dicamba by ChD (3 kDa filter, absorbance at 230 nm)", "type": "binding", "settings": "dicamba 100 mg/L, 10, 20, 30 and 40 uL enzyme solution, 5 minutes at 37° C. (FIG. 18)", "experimental": "To four of the tubes, enzyme solution was added to four of the tubes at 10, 20, 30, and 40 uL rates. The two tubes without the enzyme solution served as controls for the experiment. When the enzyme was added, five of the tubes (one of the 0 uL enzyme tubes, and all of the tubes with the enzyme added) were placed in the Eppendorf Thermomixer R for 5 minutes, at 37° C., and 800 rpm. After the incubation period, the tubes were removed from the heat and placed on ice to stop the reaction. […] These new tubes were spun at 1400 rpm for five minutes. When the spin was completed, 100 uL of the top and bottom fractions were added into a 96-well UV-Star plate. Spectral readings were then taken from 200 nm to 340 nm. The reads for the buffer alone controls were subtracted from the experimental values. The relative difference between the control without enzyme added and the experimental samples with enzyme added was calculated at 230 nm."}, "[8]": {"assay": "Absorbance spectra assay of MCPA-4 amine degradation by ChD or CAC", "type": "biochemical", "settings": "one hour at 37° C.", "experimental": "(§1) Small scale (1 mL) assays were performed to evaluate the ability of ChD and CAC to degrade MCPA-4 amine or mecoprop.\n(§2) MCPA-4 amine and mecoprop have absorbance maxima (Amax) at approximately 230 and 280 nm. […] MCPA-4 amine or mecoprop end product generation is directly proportional to the degradation MCPA-4 amine or mecoprop, respectively."}, "[9]": {"assay": "Absorbance spectra assay of mecoprop degradation by ChD or CAC", "type": "biochemical", "settings": "one hour at 37° C.", "experimental": "as §1, §2"}, "[10]": {"assay": "Absorbance spectra assay of 2,4-D degradation by ChD or CAC", "type": "biochemical", "settings": "one hour at 37° C."}, "[11]": {"settings": "dicamba 100 ppm, n=6, scale 0-5"}, "[12]": {"settings": "dicamba (CLASH) 200 mg/L alone (no enzyme), 50 mM HEPES pH 7.0, one hour at 37° C."}}, "note": "Several values for one entry are separate records, joined by “and”; a condition that tells them apart may be missing. Equal entries are not always repeated. Where two headings read alike, the source gives them in different places."}
{"molecule": "COc1c(Cl)ccc(Cl)c1C(=O)O", "note": "[Dicamba, 3,6-dichloro-2-methoxybenzoic acid]", "values": [{"measurement": "safe zone concentration in rinsate (no injury or harm to the plant or the environment)", "setting": "[1]", "result": "≤ 15", "unit": "mg/L"}, {"measurement": "Percent Dicamba Concentration Relative to T0 control", "setting": "[2]; Time 0 hours", "result": 100.0, "unit": "%"}, {"measurement": "Dicamba (ppm)", "setting": "[2]; Time 0 hours, 25 mM HEPES pH 7, 37° C.", "result": 34.9, "unit": "ppm"}, {"measurement": "Percent Dicamba Concentration Relative to T0 control", "setting": "[2]; Time 1 hour", "result": 113.6, "unit": "%"}, {"measurement": "Dicamba (ppm)", "setting": "[2]; Time 1 hour, 25 mM HEPES pH 7, 0.5 mM NADH where stated, 37° C.", "result": 39.7, "unit": "ppm"}, {"measurement": "Percent Dicamba Concentration Relative to T0 control", "setting": "[2]; Time 2 hours", "result": 106.0, "unit": "%"}, {"measurement": "Dicamba (ppm)", "setting": "[2]; Time 2 hours, 25 mM HEPES pH 7, 0.5 mM NADH where stated, 37° C.", "result": 37.0, "unit": "ppm"}, {"measurement": "average trifoliate damage score", "setting": "soybean plants [3]", "result": 4}, {"measurement": "Average Epinasty Score", "setting": "soybean plants [4]; [11]", "result": 3.0}, {"measurement": "average trifoliate damage score", "setting": "soybean plants [4]; [11]", "result": 3.5}, {"measurement": "average trifoliate damage score", "setting": "soybean plants [4]; dicamba alone at 100 ppm, 150 ppm and 200 ppm", "result": "3.5-3.6"}, {"measurement": "Absorbance at 340 nM", "setting": "[5]; Time 1 hour", "result": 0.059}, {"measurement": "Absorbance at 340 nM", "setting": "[5]; Time 2 hours", "result": 0.058}, {"measurement": "Absorbance at 340 nM", "setting": "[5]; Time T0", "result": 0.056}, {"measurement": "herbicide damage or protection from dicamba-induced injury, assessed visually", "setting": "soybean seedlings", "result": "significant curling of the leaves and stunted growth"}, {"measurement": "damage to or protection of soybean crop (size and growth vs untreated control)", "setting": "soybean", "result": "significant damage to the crops"}, {"measurement": "Absorbance Maxima at Wavelength (λ) 230", "setting": "[6]; [12]", "result": "1.597 and 1.5967"}, {"measurement": "Absorbance Maxima at Wavelength (λ) 259", "setting": "[6]; [12]", "result": 0.1597}, {"measurement": "Absorbance Maxima at Wavelength (λ) 280", "setting": "[6]; [12]", "result": 0.2845}, {"measurement": "dicamba spray level at which sensitive plants show herbicide damage with pronounced symptoms", "setting": "sensitive plants", "result": 0.017, "unit": "kg/ha"}]}
{"molecule": "B1", "values": [{"measurement": "dicamba in a bound state (relative absorbance at 230 nm of 3 kDa filter fractions)", "setting": "[7]", "result": "dose-dependent effect"}, {"measurement": "Percent (%) increase in 252 λ (end product formed) compared to MCPA-4-Amine control", "setting": "[8]; MCPA-4 amine 200 mg/L + enzyme at 20X dilution (5 μM)", "result": 464, "unit": "%"}, {"measurement": "Percent (%) increase in 252 λ (end product formed) compared to MCPA-4-Amine control", "setting": "[8]; MCPA-4 amine 200 mg/L + enzyme at 40X dilution ([…])", "result": 128.9, "unit": "%"}, {"measurement": "Percent (%) increase in 252 λ (end-product formed) compared to Mecoprop control", "setting": "[9]; mecoprop 200 mg/L + enzyme at 20X dilution (5 μM)", "result": 164, "unit": "%"}, {"measurement": "Percent (%) increase in 252 λ (end-product formed) compared to Mecoprop control", "setting": "[9]; mecoprop 200 mg/L + enzyme at 40X dilution ([…])", "result": 129, "unit": "%"}, {"measurement": "damage to or protection of soybean crop (size and growth vs untreated control)", "setting": "soybean", "result": "almost complete protection of the plants"}, {"measurement": "Percent (%) increase in 252 λ, (end product formed) compared to 2,4-D control", "setting": "[10]; 2,4-D 200 mg/L + enzyme at 20X dilution (5 μM)", "result": 196, "unit": "%"}, {"measurement": "Percent (%) increase in 252 λ, (end product formed) compared to 2,4-D control", "setting": "[10]; 2,4-D 200 mg/L + enzyme at 40X dilution ([…])", "result": 122, "unit": "%"}, {"measurement": "Percent (%) increase in 259 λ (end product formed) compared to dicamba control", "setting": "[6]; dicamba 200 mg/L + enzyme at 20X dilution (5 μM), one hour at 37° C.", "result": 501, "unit": "%"}]}
